Where “and” joins values, the source holds several entries; their conditions need not be identical. Equal values may be shown once. Entries after “also recorded” stand apart in the source; their conditions may differ.
Legend:
[1] = Second-order reaction kinetics with tetrazine DPTz (UV-Vis absorbance at 525 nm); type: physicochemical; conditions: for Second-order rate constant (k2): with DPTz, 37° C., λabs = 525 nm
Method: (§1) UV-VIS photospectrometic kinetic measurements were performed on a BioTek Synergy HT Microplate Reader (BioTek, USA) in a 96-well plate formate. In further detail, for analysis of reaction kinetics in DMSO and DMSO/H2O (9:1, v/v), stock solutions of benzonorbornadiene derivatives 1-3 (60 mM or 12.5 mM) and tetrazine (15 mM or 2.5 mM) in DMSO were prepared. Final solutions containing tetrazine (2 mM or 0.25 mM) and 1-3 (20 mM, 30 mM, 40 mM and 50 mM or 2.5 mM, 3.75 mM, 5 mM, 6.25 mM) were prepared in 96-well plates and thoroughly mixed at 37° C. for UV-Vis measurements. For analysis of reaction kinetics in DMSO/PBS (3:2, v/v), final solutions containing tetrazine (0.05 mM) and 1-2 (0.5 mM), tetrazine alone (0.05 mM) were prepared in 96-well plates and thoroughly mixed at 37° C. for UV-Vis measurements. The reactions were monitored at 525 nm, which is a local absorbance maximum of tetrazine. All kinetic experiments were run in triplicates. Pseudo-first order curve fitting was performed with Origin 8.0 software using the exponential formula: y=A1×e^kx+y0.

[2] = test system: A549 lung cancer cells; test: Cell proliferation / cytotoxicity assay (CellTiter-Glo); type: cell-based; conditions: compound alone
Method: Cell proliferation assays were performed on an Envision 2104 Multilabel Reader (PerkinElmer, USA). Specifically, A549 lung cancer cells (ATCC, USA) were maintained in a humidified CO2 (5%) incubator at 37° C. in DMEM (Thermo Fisher, USA) supplemented with 10% fetal bovine serum in the presence of 1% Penicillin-Streptomycin-Glutamine (Thermo Fisher, USA) and 0.2% Normocin (InvivoGen, USA). The cells were plated in 96-well TC treated plates (PerkinElmer, USA) at a 5000 cells/well density 24 h prior to the experiment. Prodrug 5, compound 2 (2 mM in DMSO) and PEG-Tz (40 mM in DMSO) were serially diluted in pre-warmed culture medium. Prodrug 5 and compound 2 are in a series of final concentrations ranging from 0.001 to 10 μM with 200 μM, 100 μM, 50 μM, 25 μM PEG-Tz before the experiment and added to the wells (100 μL final volume per well). Doxorubicin was used as the positive control with same series of concentrations ranging from 0.001 to 10 μM. […] After 72 h incubation at 37° C., cell proliferation was assessed by a CellTiter-Glo® viability assay. Lyophilized CellTiter Glo Substrate (Promega, USA) was dissolved in the CellTiter Glo Buffer to get CellTiter-Glo® Reagent, and from which 100 μL was added to each well. After 15 min incubation at 25° C., the medium was gently measured with Envision 2104 Multilabel Reader (PerkinElmer, USA) to get the luminescent based on quantitation of the ATP present, an indicator of metabolically active cells. The proliferation assay was performed in triplicate (n=3). EC50 values were derived from the normalized cell growth and corresponding sigmoidal curves were fitted and generated with Origin 8.0.

[3] = Second-order reaction kinetics with tetrazine PEG-Tz (UV-Vis absorbance at 525 nm); type: physicochemical; conditions: 37° C., λabs = 525 nm
Method: as §1

[4] = Stability in human serum (PBS:Serum 1:1), HPLC; type: in vitro ADME; conditions: 50 μM in PBS:Serum (1:1), 37° C., 5 up to 48 h, 2 up to 7 days
Method: Stability studies of prodrug 5 in PBS:Serum were performed as follows. Stock solutions of prodrug 5 (2.5 mM) in DMSO were prepared. Aliquots of 5 stock solution (20 μL), 0.01 M PBS (480 μL) and human serum (500 μL) (Sigma-Aldrich, USA) were combined to give final concentrations of 50 μM for the 5 in PBS: Serum (1:1, v/v). The sample was thoroughly mixed and incubated at 37° C. in the dark and subsequently a 50 μL aliquot of the sample was taken at indicated time points (5 min, 6 h, 24 h and 48 h) and quenched by 200 μL ice cold acetonitrile, followed by centrifugation at 13300 rpm for 5 min. The supernatant was injected and analyzed by HPLC at 480 nm.
Stability studies of compound 2 were performed as follows. Stock solutions of 2 (2.5 mM) in DMSO were prepared. Aliquots of 2 stock solution (20 μL), 0.01 M PBS (480 μL) and human serum (500 μL) (Sigma-Aldrich, USA) were combined to give final concentrations of 50 μM for the 2 in PBS: Serum (1:1, v/v). The sample was thoroughly mixed and incubated at 37° C. in the dark and subsequently a 50 μL aliquot of the sample was taken at indicated time points (5 min, 6 h, 24 h, 48 h, 72 h and 7 days) and quenched by 200 μL ice cold acetonitrile, followed by centrifugation at 13300 rpm for 5 min. The supernatant was injected and analyzed by HPLC at 317 nm.

7-oxo-BNBD [compound 6, reference compound]
Second-order rate constant (k2) ([1]; DMSO): 0.176 M⁻¹ s⁻¹ and 0.176 ± 0.004 M⁻¹ s⁻¹

COCCOCCOCCNC(=O)c1ccc(-c2nncnn2)cc1 [PEG-Tz, N-(2-(2-(2-methoxyethoxy)ethoxy)ethyl)-4-(1,2,4,5-tetrazin-3-yl) benzamide]
EC50 ([2]; 72 hour incubation at 37° C.): > 200000 nM | Cytotoxicity in A549 cells ([2]; tested concentration range (PEG-Tz 0.02 to 200 μM; 5 0.001 to 10 μM)): no obvious toxicity; also recorded: no cytotoxicity

O=C(Nc1ccc([N+](=O)[O-])cc1)OCC12C=CC(O1)c1ccccc12 (stereo not drawn) [compound 1]
Second-order rate constant (k2) ([3]; 60% DMSO/PBS (3:2)): 0.190 M⁻¹ s⁻¹ and 0.190 ± 0.029 M⁻¹ s⁻¹ | Second-order rate constant (k2) ([3]; 90% DMSO/H2O): 0.058 ± 0.0003 M⁻¹ s⁻¹ | Decrease of reaction rate with DPTz relative to 7-oxo-BNBD (6) ([1]; DMSO): ~12 fold | Second-order rate constant (k2) ([1]; 90% DMSO/H2O): 0.028 M⁻¹ s⁻¹ and 0.028 ± 0.0003 M⁻¹ s⁻¹ | Second-order rate constant (k2) ([1]; DMSO): 0.015 M⁻¹ s⁻¹ and 0.015 ± 0.008 M⁻¹ s⁻¹

CC(=O)N1C2C=CC1(COC(=O)Nc1ccc([N+](=O)[O-])cc1)c1ccccc12 (stereo not drawn) [compound 2]
Second-order rate constant (k2) ([3]; 60% DMSO/PBS (3:2)): 0.135 M⁻¹ s⁻¹ and 0.135 ± 0.010 M⁻¹ s⁻¹ | Second-order rate constant (k2) ([3]; 90% DMSO/H2O): 0.020 ± 0.0007 M⁻¹ s⁻¹ | Stability in human serum [4]: completely stable until the end of the analysis at one week | Unspecific payload release in human serum [4]: No free p-Nitroaniline or p-Nitroaniline-containing side products were observed; also recorded: no traces of pNA were formed; also recorded: No background liberation of reporter molecules was observed | Second-order rate constant (k2) ([1]; 90% DMSO/H2O): 0.017 M⁻¹ s⁻¹ and 0.017 ± 0.002 M⁻¹ s⁻¹ | Second-order rate constant (k2) ([1]; DMSO): 0.010 M⁻¹ s⁻¹ and 0.010 ± 0.0004 M⁻¹ s⁻¹

COc1cccc2c1C(=O)c1c(O)c3c(c(O)c1C2=O)C[C@@](O)(C(=O)CO)C[C@@H]3O[C@H]1C[C@H](N)[C@H](O)[C@H](C)O1 [Doxorubicin, reference compound]
EC50 ([2]; Homo sapiens, A549): 88 nM | EC50 ([2]; Homo sapiens, A549, 72 hour incubation at 37° C.): 88 ± 31 nM

CC(C)(C)OC(=O)N1C2C=CC1(COC(=O)Nc1ccc([N+](=O)[O-])cc1)c1ccccc12 (stereo not drawn) [compound 3, tert-butyl 1-((((4-nitrophenyl)carbamoyl)oxy)methyl)-1,4-dihydro-1,4-epiminonaphthalene-9-carboxylate]
Second-order rate constant (k2) ([1]; 90% DMSO/H2O): 0.0084 M⁻¹ s⁻¹ and 0.0084 ± 0.0016 M⁻¹ s⁻¹ | Second-order rate constant (k2) ([1]; DMSO): 0.0044 M⁻¹ s⁻¹ and 0.0044 ± 0.00009 M⁻¹ s⁻¹

Source: US11560384B2, “Benzonorbornadiene derivatives and reactions thereof” (University of Utah Research Foundation, priority 2017, dated 2023)
